According to patent publication US20250340603A1, “A METHOD FOR MODULATING PLANT ADAPTATION TRAITS” (CRAG (Centre de Recerca en Agrigenòmica), priority 2021, published 2025):

T1: BRL3 (BRASSINOSTEROID RECEPTOR LIKE 3), full length, fused to a half of YFP (BiFC construct) (Arabidopsis thaliana, UniProt Q9LJF3 24-1164)
T1 construct: also called BRL3 receptor; AT3G13380; not shown: half of YFP (YN or YC, both directions tested) from vectors pGTQL1211-YN / pGTQL1221-YC
T1 sequence: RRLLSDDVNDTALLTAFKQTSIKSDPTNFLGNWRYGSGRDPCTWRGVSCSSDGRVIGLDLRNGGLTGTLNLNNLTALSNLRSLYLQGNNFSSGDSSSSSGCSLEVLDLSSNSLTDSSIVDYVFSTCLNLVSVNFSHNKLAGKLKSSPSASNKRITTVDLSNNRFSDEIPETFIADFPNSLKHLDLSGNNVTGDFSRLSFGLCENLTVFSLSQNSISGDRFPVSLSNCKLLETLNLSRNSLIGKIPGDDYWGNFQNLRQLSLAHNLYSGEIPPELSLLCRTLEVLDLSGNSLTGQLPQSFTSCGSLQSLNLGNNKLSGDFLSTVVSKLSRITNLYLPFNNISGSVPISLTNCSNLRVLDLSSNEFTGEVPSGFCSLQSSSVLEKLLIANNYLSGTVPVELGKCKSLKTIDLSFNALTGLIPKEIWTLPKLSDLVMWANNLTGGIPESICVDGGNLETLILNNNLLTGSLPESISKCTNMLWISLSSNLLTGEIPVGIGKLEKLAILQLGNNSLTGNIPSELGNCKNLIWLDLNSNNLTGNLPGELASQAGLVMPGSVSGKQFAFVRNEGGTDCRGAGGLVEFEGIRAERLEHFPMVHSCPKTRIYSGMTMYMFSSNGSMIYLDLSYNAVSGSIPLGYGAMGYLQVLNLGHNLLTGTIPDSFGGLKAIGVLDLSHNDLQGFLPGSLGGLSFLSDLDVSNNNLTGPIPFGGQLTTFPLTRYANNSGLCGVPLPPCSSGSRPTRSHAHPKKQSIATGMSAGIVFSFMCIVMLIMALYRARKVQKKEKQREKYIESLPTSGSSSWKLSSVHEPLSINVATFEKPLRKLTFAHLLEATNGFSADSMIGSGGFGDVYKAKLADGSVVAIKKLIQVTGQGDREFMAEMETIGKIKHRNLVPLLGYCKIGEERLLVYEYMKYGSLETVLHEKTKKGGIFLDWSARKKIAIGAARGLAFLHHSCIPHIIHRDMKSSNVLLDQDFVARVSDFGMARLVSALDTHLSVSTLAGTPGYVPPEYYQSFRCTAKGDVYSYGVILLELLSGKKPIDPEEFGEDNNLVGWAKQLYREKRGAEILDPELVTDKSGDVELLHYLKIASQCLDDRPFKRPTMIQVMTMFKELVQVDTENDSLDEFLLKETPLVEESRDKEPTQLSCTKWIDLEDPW

B1: BKI1, BiFC negative control (other, UniProt Q9FMZ0 1-337, looked up)
chain: METNLQQVKNSSQTFSEKQNPKQEASPSPISSTCSSPSHDFSFTISLQPLSSSSKHISPTLRSPSKTTSSYQQTDPFAVDLSPADEIFFHGHLLPLHLLSHLPVSPRTSTGSYNDGFTLPVKDILPDQPTNNNNNTENAITNISTEAKDDNTEDKAEGEIRVKTKPIKSFSLFGLSKWRKGFESNEREQEQQQQKIKKPMSLDLSHAVKKYIRMLFQKRGNGTQFWNRRQTSSYSFSSSLMGPNGNSKTMINGSYNKRDLIRGRRGELFSAPASMRTSPTNSGHLRVSTAGLSSSSGSTSSSSSDSTMEELQAAIQAAIAHCKNSSAVDRDDKVKDS
notes: whole, on cells; not shown: the construct of this control is not described

Experiments:
WT (Col-0) seedlings = test: BRZ220 treatment, hypocotyl elongation growth; format: in vivo, Arabidopsis thaliana; details: 1 μM BRZ220 in media, WT plants, 22° C. or 28° C., 6 d, LD
Method: Pharmacological treatments were performed in plates adding hormones/drugs in the media. Chemicals used include; 1 μM BRZ220 (Gift from T. Nakano, RIKEN, Japan) or 50 μM Bikinin (200980, Sigma-Aldrich) for 6-d in control (long days, 22° C.) or high temperature (long days, 28° C.) conditions. Hypocotyl length were measured using the Image J software (v.1.48v) (https-/imagej.nih.gov/ij/). For hypocotyl elongation analysis, seedlings were grown in horizontally placed 0.5MS− media plates in controlled growth conditions (Aralab 600; long days 16:8h day/night cycle 60% relative humidity and 50-70 μmol m^−2 s^−1 of cool-white fluorescent light) at 22° C. or 28° C. temperature for 5-7d. Plates were photographed and hypocotyl length were measured using the ImageJ software (v.1.48v) (https:/imagej.nih.gov/ij/). For root growth analysis, seedlings were grown in vertically placed 0.5MS− media plates in controlled growth conditions (Aralab 600; long days 16:8h day/night cycle; 22° C.). MyROOT software (Betegón-Putzé et al., 2019) was used to compare root growth of plants. Lateral roots were manually counted under a stereozoom microscope in 9-d-old seedlings.

[1] = target: T1, BRL3 (BRASSINOSTEROID RECEPTOR LIKE 3), …; test: BiFC (split YFP) in Nicotiana benthamiana leaves, confocal microscopy

Molecule	hypocotyl size (WT (Col-0) seedlings)	binding result [1]
CC(O)(c1ccccc1)C(Cc1ccc(Cl)cc1)n1cncn1 (centres unmarked) [BRZ220, Brassinazole]	reduced hypocotyl size irrespective of the temperature	–
B1	–	no binding
